Here are results for one compound from article PMC5218480 (PLoS ONE, 2017).

Structures are written as SMILES.

This assay has as its system MV-4-11 cells. Put plainly: Gene expression microarray analysis (Affymetrix PrimeView) and GSEA. The assay is classed as cell-based, human. As to conditions: MV-4-11, 48 hours, 1 μM each.

With `Nc1ncn([C@@H]2O[C@H](CO)[C@@H](O)[C@H]2O)c(=O)n1` [azacitidine], the “genes down-regulated greater than 2-fold relative to vehicle control” value is 12 genes.
